Experiments:
[1] = hygroscopicity (moisture sorption) by DVS; type: physicochemical; conditions: from 0 to 80% RH
Text: The free base of Compound 1 was obtained originally as an amorphous solid, which is slightly hygroscopic with 2.2% water gain from 0 to 80% RH. No form transformation was observed after dynamic vapor sorption (DVS).

[2] = short-term stability study (1 week, 60° C. and 40° C./75% RH); type: physicochemical
Description: Weighed about 2 mg (For XRPD: 10 mg) of each of the above salts in a 40 mL glass vial, separately. The free base form was used as control. The closed samples were capped and sealed with parafilm, while the opened samples were covered by aluminum foil with pinhole. All the samples were stored in stability chamber or dry oven at the corresponding conditions (60° C. and 40° C./75% RH) for 1 week.

aqueous solubility study = type: physicochemical; conditions: listed as free base of Compound 1
tissue distribution = type: in vivo; conditions: various tissues, brain
CYP3A = assay: CYP isoforms responsible for metabolism; type: in vitro ADME
[3] = pharmacokinetic comparison of sesqui-maleate and free base, oral; type: in vivo, Beagle dogs; conditions: dogs, oral dose 1 mg/kg (free base); listed as Free Base (Lyophilized Amorphous Form), 1 mg/kg
Text: Drugs and reagents: Crystalline Form A* of Compound 1 Sesqui-Maleate with particle sizes of D90=4.1 um, D10=1.5 um, D50=2.4 um after micronization. The material content (purity) was not less than 98.0%.
Experiment animals: Beagle dogs, male and female.
Pharmaceutical preparation: Weigh the appropriate amount of each substance and disperse in 0.5% sodium carboxymethyl cellulose (for the free base of Compound 1) or 0.5% methyl cellulose solution (for Compound 1 Sesqui-Maleate). Prepare a suspension at the desired concentration of Compound 1. All the doses and concentrations of Compound 1 were calculated with free base in this study.
Administration and sample collection: The dosing solutions will be freshly prepared prior to dose administration. The actual body weights and actual volume injected will be recorded accordingly. The dogs were fasted overnight and were allowed to intake food four hours after dosing. Each suspension was administrated orally to dogs at a dose ranged from 0.5 to 15 mg/kg. Blood samples (˜1.0 mL) will be collected at pre-dose and at different times up to 36 hours postdosing via cephalic vein plexus. Whole blood will be processed by centrifugation and plasma samples will be collected and kept at freezer prior to analysis. Plasma samples were processed by protein precipitation. Concentrations of Compound 1 in the plasma samples were determined using a validated liquid chromatography-tandem mass spectrometry (LC-MS/MS) method. The plasma concentration-time data were analyzed using a non-compartmental model using Pharsight WinNonlin.

[4] = test system: BRAF V600E and KRAS cancers; assay: Phase I clinical study; type: in vivo, human
[5] = 16 KRAS cancer patients treated

2-hydroxyethanesulfonate
water (weight) gain [1]: around 4%
TRS % ([2]; 0 day): 0.08%
TRS % ([2]; 40° C./75% RH, 1 week): 0.51%
TRS % ([2]; 60° C., 1 week): 1.16%
chemical degradation ([2]; after one week at 60° C. and 40° C./75% RH): showed degradations
appearance by visual observation ([2]; both conditions after 1 week): no change

O=C1CCc2c(Oc3ccc4c(c3)[C@@H]3[C@H](O4)[C@H]3c3nc4ccc(C(F)(F)F)cc4[nH]3)ccnc2N1 [Compound 1, 5-(((1R,1aS,6bR)-1-(6-(trifluoromethyl)-1H-benzo[d]imidazol-2-yl)-1a,6b-dihydro-1H-cyclopropa[b]benzofuran-5-yl)oxy)-3,4-dihydro-1,8-naphthyridin-2(1H)-one]
solubility in water (aqueous solubility study): substantially insoluble in water
aqueous solubility (aqueous solubility study; water, LOQ at 0.001 mg/mL): < 1 µg/mL
water (weight) gain [1]: 2.2%
TRS % ([2]; 0 day, listed as API free base): 0.12%
TRS % ([2]; 40° C./75% RH, 1 week, listed as API free base): 0.11%
TRS % ([2]; 60° C., 1 week, listed as API free base): 0.12%
tissue distribution (tissue distribution): widely distributed to various tissues, but was low in brain tissue
CYP isoform responsible for metabolism (CYP3A): CYP3A was the major CYP isoform
Cmax [3]: 257 ng/mL
Dose-Normalized AUC0-inf [3]: 1512 ng·kg·h/mL/mg
number of PR [4, 5]: 3 PR
patients survived more than 2.2 months [4, 5]: at least 12 patients
clinical response ([4]; BRAF V600E CRC patients): some anti-tumor activities
clinical response ([4]; BRAF V600E PTC patients): partial responses
clinical response ([4]; BRAF V600E melanoma patients): partial responses
